The NIST ThermoML archive (doi:10.1016/j.jct.2013.08.002)
Numbers after ± are expanded uncertainties.

Experiment: relative permittivity at various frequencies (dimensionless)
Details: 101 kPa, Liquid, Frequency=0.01 MHz, Coaxial cylinder capacitor

NCCNCCO [N-(2-aminoethyl)ethanolamine] gave a relative permittivity (293.2 K) of 21.51 ± 0.2, a relative permittivity (299.2 K) of 19.87 ± 0.2 and a relative permittivity (304.2 K) of 18.18 ± 0.2. The relative permittivity (308.2 K) was 17.09 ± 0.2, the relative permittivity (314.2 K) was 15.84 ± 0.2 and the relative permittivity (320.2 K) was 14.64 ± 0.2. It also gave a relative permittivity (323.2 K) of 13.97 ± 0.2, a relative permittivity (330.2 K) of 12.89 ± 0.2 and a relative permittivity (333.2 K) of 12.3 ± 0.2. The relative permittivity (339.2 K) was 11.37 ± 0.2, the relative permittivity (343.2 K) was 10.77 ± 0.2 and the relative permittivity (348.2 K) was 10.19 ± 0.2.
